Reference: patent US9598440B2, “Inhibitors of IRAK4 activity” (MERCK SHARP & DOHME CORP., priority 2012, dated 2017)

Target: IRAK4 (Homo sapiens (Human), UniProt Q9NWZ3)
Experiment: Determination of IRAK4 kinase activity (IMAP fluorescence polarization, phosphorylation of fluorescent peptide substrate)
Format: biochemical
Conditions: 0.5 nM GST tagged IRAK4, 100 nM peptide substrate RP7030, 100 μM ATP, 30 minutes at 25° C.
Method: The kinase activity of IRAK4 is determined by its ability to catalyze the phosphorylation of a fluorescent polypeptide substrate. The extent of phosphorylation is measured using IMAP technology (Molecular Devices) where the phosphorylated fluorescent substrate binds to the large M(III)-based nanoparticles which reduces the rotational speed of the substrate and thus increases its fluorescent polarization (FP).
Procedure: A 20 μl reaction mixture contains 10 mM TriHCl, pH 7.2, 0.5 nM GST tagged IRAK4 (SignalChem), 100 nM fluorescent peptide substrate (RP7030, Molecular Devices), 100 μM ATP, 1 mM DTT, 1 mM MgCl2, and 0.01% Tween 20. The reaction is initiated by the addition of ATP. After incubation for 30 minutes at 25° C., 60 μl of Progressive IMAP Reagent (Molecular Devices) is added to stop the reaction. Change in RP7030's FP is determined by a FP reader (Analyst HT, LJL BioSystems). Analytical LCMS Conditions: • Condition A: Phenomenex Luna C18 (4.6×250 mm), 95:5 to 5:95 water:MeCN (0.05% TFA), over 10 min, hold 6 min. • Condition B: Agilent SBC (3.0×50 mm), solvent A: H20-0.1% TFA; • solvent B: ACN-0.1% TFA; GRADIENT TABLE: 0 min:10% B, 0.3 min: 10% B, 1.5 min: 95% B, 2.70 min: 95% B, 2.76 min: 10% B, stop time 3.60 min.

Sequence of IRAK4 (Q9NWZ3 whole entry): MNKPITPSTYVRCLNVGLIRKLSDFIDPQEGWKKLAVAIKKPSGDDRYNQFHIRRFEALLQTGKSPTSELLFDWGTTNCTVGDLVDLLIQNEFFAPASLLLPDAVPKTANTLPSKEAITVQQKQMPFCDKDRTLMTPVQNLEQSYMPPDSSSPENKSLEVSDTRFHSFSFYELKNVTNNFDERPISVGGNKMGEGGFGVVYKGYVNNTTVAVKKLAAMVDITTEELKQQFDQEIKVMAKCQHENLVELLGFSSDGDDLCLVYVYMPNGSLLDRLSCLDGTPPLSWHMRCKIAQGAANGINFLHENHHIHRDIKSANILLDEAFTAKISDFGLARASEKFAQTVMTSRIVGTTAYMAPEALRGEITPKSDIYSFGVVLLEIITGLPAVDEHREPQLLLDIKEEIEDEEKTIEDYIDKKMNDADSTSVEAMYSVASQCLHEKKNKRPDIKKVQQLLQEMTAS

Compound `OC[C@H]1C[C@@H](Nc2nc(Nc3ccccc3)ncc2-c2nc3ccccc3s2)[C@H](O)[C@@H]1O` [Example 1, (1R,2S,3R,5R)-3-((5-(benzo[d]thiazol-2-yl)-2-(phenylamino)pyrimidin-4-yl)amino)-5-(hydroxymethyl)cyclopentane-1,2-diol] has an IC50 of 20 nM.

With `Cc1nc(Nc2ccc(O)cc2)nc(N[C@@H]2C[C@H](CO)[C@@H](O)[C@H]2O)c1-c1nc2ccccc2s1` [Example 103, (1R,2S,3R,5R)-3-((5-(benzo[d]thiazol-2-yl)-2-((4-hydroxyphenyl)amino)-6-methylpyrimidin-4-yl)amino)-5-(hydroxymethyl)cyclopentane-1,2-diol] the IC50 was 243 nM.

Compound `Cc1cc(Nc2ncc(-c3nc4ccccc4s3)c(N[C@@H]3C[C@H](CF)[C@@H](O)[C@H]3O)n2)cc(C)n1` [Example 144, (1R,2S,3R,5S)-3-((5-benzo[d]thiazol-2-yl)-2-((2,6-dimethylpyridin-4-yl)amino-pyrimidin-4-yl)amino)-5-(fluoromethyl)cyclopentane-1,2-diol] has an IC50 of 3 nM.

In the case of `Nc1ncc(-c2ccccn2)c(N[C@@H]2C[C@H](CO)[C@@H](O)[C@H]2O)n1` [Example 38, (1R,2S,3R,5R)-3-((2-amino-5-(pyridin-2-yl)pyrimidin-4-yl)amino)-5-(hydroxymethyl)cyclopentane-1,2-diol], the IC50 is reported as 623 nM.

With `OC[C@H]1C[C@@H](Nc2nc(Nc3ccccc3O)ncc2-c2nc3ccccc3s2)[C@H](O)[C@@H]1O` [Example 22, (1R,2S,3R,5R)-3-((5-(benzo[d]thiazol-2-yl)-2-((2-hydroxyphenyl)amino)pyrimidin-4-yl)amino)-5-(hydroxymethyl)cyclopentane-1,2-diol] the IC50 was 1240 nM.

For `CO[C@@H]1[C@H](O)[C@@H](CO)C[C@H]1Nc1cc(Nc2cc(C)nc(C)c2)ncc1-c1nc2ccccc2s1` [Example 156, (1R,2S,3R,5R)-3-((5-(benzo[d]thiazol-2-yl)-2-((2,6-dimethylpyridin-4-yl)amino)pyridin-4-yl)amino)-5-(hydroxymethyl)-2-methoxycyclopentanol], the IC50 was 83 nM.

With `Cc1cc(Nc2ncc(-c3nc4c(C)nccc4s3)c(N[C@@H]3CC(C(C)(C)O)[C@@H](O)[C@H]3O)n2)cc(C)n1` (stereo in doubt) [Example 138, 6-(((1R,2S,3R,4R)-2,3-dihydroxy-4-(2-hydroxypropan-2-yl)cyclopentyl)amino)-2-((2,6-dimethylpyridin-4-yl)amino)-5-(4-methylthiazolo[4,5-c]pyridin-2-yl)pyrimidine] the IC50 was 0.5 nM.

Compound `Cc1nc(Nc2ccccn2)nc(N[C@@H]2C[C@H](CO)[C@@H](O)[C@H]2O)c1-c1nc2ccccc2s1` [Example 97, (1R,2S,3R,5R)-3-((5-(benzo[d]thiazol-2-yl)-6-methyl-2-(pyridin-2-ylamino)pyrimidin-4-yl)amino)-5-(hydroxymethyl)cyclopentane-1,2-diol] has an IC50 of 11300 nM.

With `COc1ccc(Nc2ncc(-c3nc4ccccc4s3)c(N[C@@H]3C[C@H](CO)[C@@H](O)[C@H]3O)n2)cc1` [Example 10, (1R,2S,3R,5R)-3-((5-(benzo[d]thiazol-2-yl)-2-((4-methoxyphenyl)amino)pyrimidin-4-yl)amino)-5-(hydroxymethyl)cyclopentane-1,2-diol] the IC50 was 14 nM.

In the case of `CO[C@@H]1[C@H](O)[C@@H](CO)C[C@H]1Nc1nc(Nc2cc(C)nc(C)c2)ncc1-c1nc2ccccc2s1` [Example 140, (1R,2S,3R,5R)-3-((5-(benzo[d]thiazol-2-yl)-2-((2,6-dimethylpyridin-4-yl)amino)pyrimidin-4-yl)amino)-5-(hydroxymethyl)-2-methoxycyclopentanol], the IC50 is reported as 9 nM.

Compound `Nc1ncc(-c2nc3ccccc3o2)c(N[C@@H]2C[C@H](CO)[C@@H](O)[C@H]2O)n1` [Example 5, (1R,2S,3R,5R)-3-((2-amino-5-(benzo[d]oxazol-2-yl)pyrimidin-4-yl)amino)-5-(hydroxymethyl)cyclopentane-1,2-diol] has an IC50 of 2560 nM.

`OC[C@H]1C[C@@H](Nc2nc(NC3CCOCC3)ncc2-c2nc3ccccc3s2)[C@H](O)[C@@H]1O` [Example 17, (1R,2S,3R,5R)-3-((5-(benzo[d]thiazol-2-yl)-2-((tetrahydro-2H-pyran-4-yl)amino)pyrimidin-4-yl)amino)-5-(hydroxymethyl)cyclopentane-1,2-diol] was tested, and the IC50 was 1080 nM.

`OC[C@H]1C[C@@H](Nc2nc(Nc3cccnc3)ncc2-c2nc3ccncc3s2)[C@H](O)[C@@H]1O` [Example 78, 6-(((1R,2S,3R,4R)-2,3-dihydroxy-4-(hydroxymethyl)cyclopentyl)amino)-2-(pyridin-3-ylamino)-5-(thiazolo[5,4-c]pyridin-2-yl)pyrimidine] was tested, and the IC50 was 13 nM.

For `OC[C@H]1C[C@@H](Nc2nc(NC3CCOC3)ncc2-c2nc3ccccc3s2)[C@H](O)[C@@H]1O` (mixture of isomers) [Example 48, (1R,2S,3R,5R)-3-((5-(benzo[d]thiazol-2-yl)-2-(((RS)-tetrahydrofuran-3-yl)amino)pyrimidin-4-yl)amino)-5-(hydroxymethyl)cyclopentane-1,2-diol], the IC50 was 1580 nM.

In the case of `COc1cc(Nc2ncc(-c3nc(-c4ccccc4)cs3)c(N[C@@H]3C[C@H](CO)[C@@H](O)[C@H]3O)n2)ccn1` [Example 80, 6-(((1R,2S,3R,4R)-2,3-dihydroxy-4-(hydroxymethyl)cyclopentyl)amino)-2-((2-methoxypyridin-4-yl)amino)-5-(4-phenylthiazol-2-yl)pyrimidine], the IC50 is reported as 98 nM.

`CN(C)c1cccc(Nc2ncc(-c3nc4cnccc4s3)c(N[C@@H]3C[C@H](CO)[C@@H](O)[C@H]3O)n2)c1` [Example 73, 6-(((1R,2S,3R,4R)-2,3-dihydroxy-4-(hydroxymethyl)cyclopentyl)amino)-2-((3-(dimethylamino)phenyl)amino)-5-(thiazolo[4,5-c]pyridin-2-yl)pyrimidine] was tested, and the IC50 was 12 nM.

With `NC(=O)Cc1ccc(Nc2ncc(-c3nc4ccccc4s3)c(N[C@@H]3C[C@H](CO)[C@@H](O)[C@H]3O)n2)cc1` [Example 29, 2-(4-((5-(benzo[d]thiazol-2-yl)-4-(((1R,2S,3R,4R)-2,3-dihydroxy-4-(hydroxymethyl)cyclopentyl)amino)pyrimidin-2-yl)amino)phenyl)acetamide] the IC50 was 10 nM.

`Cc1cc(Nc2ncc(-c3nc(-c4ccccc4)cs3)c(N[C@@H]3C[C@H](CO)[C@@H](O)[C@H]3O)n2)ccn1` [Example 79, 6-(((1R,2S,3R,4R)-2,3-dihydroxy-4-(hydroxymethyl)cyclopentyl)amino)-2-((2-methylpyridin-4-yl)amino)-5-(4-phenylthiazol-2-yl)pyrimidine] gave an IC50 of 8 nM.

`Nc1ncc(-c2nccs2)c(N[C@@H]2C[C@H](CO)[C@@H](O)[C@H]2O)n1` [Example 64, 2-amino-6-(((1R,2S,3R,4R)-2,3-dihydroxy-4-(hydroxymethyl)cyclopentyl)amino)-5-(thiazol-2-yl)pyrimidine] gave an IC50 of 241 nM.

Compound `CC(C)n1ccc(Nc2ncc(-c3ccc4ccccc4n3)c(N[C@@H]3C[C@H](CO)[C@@H](O)[C@H]3O)n2)cc1=O` [Example 62, 6-(((1R,2S,3R,4R)-2,3-dihydroxy-4-(hydroxymethyl)cyclopentyl)amino)-2-((1-isopropyl-2-oxo-1,2-dihydropyridin-4-yl)amino)-5-(quinolin-2-yl)pyrimidine] has an IC50 of 154 nM.
